Converted amounts (≈) assume the structure as drawn. Like-named read-outs stand apart in the source and are kept apart here.
How the values were obtained:
Bacteroides Fragilis = test: Growth inhibitory activity, antibiotic dilution technique (obligate anaerobes); type: cell-based; settings: 3 strains, geometric mean when applicable, read-out: Minimum inhibitory concentration
Protocol: Antibiotic spectrum. […] Procedures were as follows:
c. Obligate anaerobes. The assay was performed on solid medium, consisting of Brain Heart Infusion Broth (BBL) supplemented with 5% defibrinated sheep blood and 1% Ionagar (Colab). […] The plates were incubated at 37° C. for 48 hours under the oxygen-free conditions attained with a Gas-Pak (BBL) Brewer jar system.

Staphylococcus Aureus = test: Effect of inoculum size on susceptibility of Staphylococcus aureus; type: cell-based; settings: for MICB /MICA: MIC at 10^6 over MIC at 10^2 organisms; for MIC: Staphylococcus aureus, geometric means, read-out: Minimum inhibitory concentration
[1] = target: β-lactamase Class I Type a, Enterobacter cloacae 214 (Enterobacter cloacae, UniProt P05364); type: biochemical
Sequence of β-lactamase Class I Type a, Enterobacter cloacae 214 (P05364 21-381): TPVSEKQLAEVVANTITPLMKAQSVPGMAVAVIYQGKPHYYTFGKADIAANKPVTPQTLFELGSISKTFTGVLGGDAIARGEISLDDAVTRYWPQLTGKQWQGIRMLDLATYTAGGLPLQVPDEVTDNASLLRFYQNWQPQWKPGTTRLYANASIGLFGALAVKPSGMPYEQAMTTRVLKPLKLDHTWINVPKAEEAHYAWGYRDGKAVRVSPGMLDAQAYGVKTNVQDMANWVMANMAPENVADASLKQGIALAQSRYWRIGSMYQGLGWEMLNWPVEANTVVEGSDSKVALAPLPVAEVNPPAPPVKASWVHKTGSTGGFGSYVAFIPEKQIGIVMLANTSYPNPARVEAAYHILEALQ
Protocol: (§1) Miscellaneous. Methods for determining bactericidal activity and susceptibility to cell-free β-lactamase were those previously used; Leitner et al., BL-S640, A Cephalosporin With a Broad Spectrum of Antibacterial Activity: Properties in vitro, Antimicrob. Agents Chemother.
(§2) Susceptibility to β-lactamase. Susceptibility to enzymic hydrolysis was assessed by determining relative rates of hydrolysis by cell-free preparations of various β-lactamases (Table 6).

[2] = target: β-lactamase Class I Type b, Escherichia coli 719 (Escherichia coli, UniProt P00811); type: biochemical
Sequence of β-lactamase Class I Type b, Escherichia coli 719 (P00811 20-377): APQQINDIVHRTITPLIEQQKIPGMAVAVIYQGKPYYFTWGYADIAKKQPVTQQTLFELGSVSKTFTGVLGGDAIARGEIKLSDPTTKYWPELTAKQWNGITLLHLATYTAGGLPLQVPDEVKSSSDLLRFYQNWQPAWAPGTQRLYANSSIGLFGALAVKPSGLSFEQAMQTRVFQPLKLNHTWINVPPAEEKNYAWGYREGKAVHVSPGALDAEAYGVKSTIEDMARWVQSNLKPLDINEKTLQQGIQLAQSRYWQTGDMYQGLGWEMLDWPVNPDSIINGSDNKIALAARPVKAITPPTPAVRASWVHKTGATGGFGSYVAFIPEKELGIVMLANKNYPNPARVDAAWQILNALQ
Protocol: as §1, §2

[3] = test system: β-lactamase Class II Type a, Proteus mirabilis 1266; type: biochemical
Protocol: as §1, §2

[4] = target: T1, β-lactamase Class III Type a, Escherichia coli TEM (Escherichia coli, UniProt P62593); type: biochemical
T1 construct: cell-free preparations of various β-lactamases; endogenous in cells; host or cells: Escherichia coli strain TEM
T1 sequence (P62593 24-286 limits assumed): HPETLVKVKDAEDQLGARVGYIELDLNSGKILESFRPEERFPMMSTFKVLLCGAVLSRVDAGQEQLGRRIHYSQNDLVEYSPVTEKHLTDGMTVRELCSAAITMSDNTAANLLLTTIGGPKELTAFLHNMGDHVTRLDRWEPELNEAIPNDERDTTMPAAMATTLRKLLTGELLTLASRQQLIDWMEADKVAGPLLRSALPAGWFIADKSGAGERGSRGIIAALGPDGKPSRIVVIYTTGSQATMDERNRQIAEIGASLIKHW
Protocol: as §1, §2

[5] = test system: β-lactamase Class IV Type a, Klebsiella pneumoniae 53; type: biochemical
Protocol: as §1, §2

[6] = test system: β-lactamase Class IV Type b, Klebsiella pneumoniae 1169; type: biochemical
Protocol: as §1, §2

Enterobacter cloacae = test: Intramuscular treatment of systemically infected mice; type: in vivo; settings: im; for ED50: Enterobacter cloacae, 3.5 h, read-out: PD50 /treatment
Source text: Treatment of Systemically Infected Mice. The procedures were identical with those published previously [Leitner et al., BL-S640, a Cephalosporin With a Broad Spectrum of Antibacterial Activity: Bioavailability and Therapeutic Properties in Rodents, Antimicrob. Agents Chemother.
(a) the hog gastric mucin used in infections with Staphylococcus aureus No. 2 was purchased from American Laboratories, Inc., Omaha, Neb.

in vitro = in vitro ADME, human; settings: human, serum; read-out: protein bound (converted)
[7] = Recovery in urine after intramuscular injection; settings: rat, im, 10 mg/kg
Arizona hinshawii = test: Growth inhibitory activity, antibiotic dilution technique; settings: Salmonella enterica, read-out: Minimum inhibitory concentration
Serratia marcescens = test: as above; settings: read-out: Minimum inhibitory concentration
Erwinia sp. = test: as above; settings: read-out: Minimum inhibitory concentration
Vibrio cholerae = test: as above; settings: read-out: Minimum inhibitory concentration
Pseudomonas aeruginosa = test: as above; settings: read-out: Minimum inhibitory concentration
[8] = test system: Bordetella bronchiseptica; test: as above; settings: read-out: Minimum inhibitory concentration
Haemophilus influenzae = test: as above; settings: including 9 ampicillin-resistant strains
Klebsiella pneumoniae = test: Effect of inoculum size on susceptibility of Enterobacteriaceae
Enterobacter aerogenes = test: as above; settings: Klebsiella aerogenes, read-out: Minimum Inhibitory Concentration, Enterobacter aerogenes strain 1
Proteus vulgaris = test: as above
Proteus rettgeri = test: as above; settings: Providencia rettgeri
[9] = Antibiotic concentration in blood after intramuscular injection; settings: mouse, im
Neisseria gonorrhoeae = test: Growth inhibitory activity, antibiotic dilution technique
[10] = Lacking penicillinase, 3 strains
[11] = Penicillinase producer, 26 strains
[12] = read-out: Minimum Inhibitory Concentration, Klebsiella pneumoniae strain 1, A, Inoculum of 10^2 organisms
[13] = read-out: Minimum Inhibitory Concentration, Klebsiella pneumoniae strain 1, B, Inoculum of 10^6 organisms
[14] = read-out: Minimum Inhibitory Concentration, Klebsiella pneumoniae strain 2, A, Inoculum of 10^2 organisms
[15] = read-out: Minimum Inhibitory Concentration, Klebsiella pneumoniae strain 2, B, Inoculum of 10^6 organisms
[16] = read-out: Minimum Inhibitory Concentration, Klebsiella pneumoniae strain 3, A, Inoculum of 10^2 organisms
[17] = read-out: Minimum Inhibitory Concentration, Klebsiella pneumoniae strain 3, B, Inoculum of 10^6 organisms
[18] = read-out: Minimum Inhibitory Concentration, Klebsiella pneumoniae strain 4, A, Inoculum of 10^2 organisms
[19] = read-out: Minimum Inhibitory Concentration, Klebsiella pneumoniae strain 4, B, Inoculum of 10^6 organisms
[20] = read-out: Minimum Inhibitory Concentration, Klebsiella pneumoniae strain 5, A, Inoculum of 10^2 organisms
[21] = read-out: Minimum Inhibitory Concentration, Klebsiella pneumoniae strain 5, B, Inoculum of 10^6 organisms
[22] = read-out: Minimum Inhibitory Concentration, Klebsiella pneumoniae strain 6, A, Inoculum of 10^2 organisms
[23] = read-out: Minimum Inhibitory Concentration, Klebsiella pneumoniae strain 6, B, Inoculum of 10^6 organisms
[24] = read-out: Minimum Inhibitory Concentration, Proteus vulgaris strain 1, A, Inoculum of 10^2 organisms
[25] = read-out: Minimum Inhibitory Concentration, Proteus vulgaris strain 1, B, Inoculum of 10^6 organisms
[26] = read-out: Minimum Inhibitory Concentration, Proteus vulgaris strain 2, A, Inoculum of 10^2 organisms
[27] = read-out: Minimum Inhibitory Concentration, Proteus vulgaris strain 2, B, Inoculum of 10^6 organisms
[28] = read-out: Minimum Inhibitory Concentration, Proteus vulgaris strain 4, A, Inoculum of 10^2 organisms
[29] = read-out: Minimum Inhibitory Concentration, Proteus vulgaris strain 4, B, Inoculum of 10^6 organisms
[30] = read-out: Minimum Inhibitory Concentration, Proteus rettgeri strain 1, A, Inoculum of 10^2 organisms
[31] = read-out: Minimum Inhibitory Concentration, Proteus rettgeri strain 1, B, Inoculum of 10^6 organisms
[32] = read-out: Minimum Inhibitory Concentration, Proteus rettgeri strain 2, A, Inoculum of 10^2 organisms
[33] = read-out: Minimum Inhibitory Concentration, Proteus rettgeri strain 2, B, Inoculum of 10^6 organisms
[34] = read-out: Minimum Inhibitory Concentration, Proteus rettgeri strain 3, A, Inoculum of 10^2 organisms
[35] = read-out: Minimum Inhibitory Concentration, Proteus rettgeri strain 3, B, Inoculum of 10^6 organisms

For `O=C(Cc1cccs1)N[C@@H]1C(=O)N2C(C(=O)[O-])=C(C[n+]3ccccc3)CS[C@H]12` [Cephaloridine], the MIC (Bacteroides Fragilis) was 79 µg/mL (≈ 190 µM), the “MICB /MICA” value (Staphylococcus Aureus; [10]) was 1.6 and the “MICB /MICA” value (Staphylococcus Aureus; [11]) was 20. For the same molecule, the MIC (Staphylococcus Aureus; Lacking penicillinase, 3 strains, A, Inoculum of 10^2 organisms) was 0.025 µg/mL (≈ 0.0602 µM), the MIC (Staphylococcus Aureus; Lacking penicillinase, 3 strains, B, inoculum of 10^6 organisms) was 0.039 µg/mL (≈ 0.0939 µM) and the MIC (Staphylococcus Aureus; Penicillinase producer, 26 strains, A, Inoculum of 10^2 organisms) was 0.077 µg/mL (≈ 0.185 µM). For the same molecule, the MIC (Staphylococcus Aureus; Penicillinase producer, 26 strains, B, inoculum of 10^6 organisms) was 1.6 µg/mL (≈ 3.85 µM), the “effect of cell concentration on growth inhibitory activity” value (Staphylococcus Aureus; penicillinase-producing strains) was “sharply” and the “Relative Rate of Hydrolysis (benzylpenicillin = 100)” value (shortened to “Relative Rate of Hydrolysis”) [1] was 7900. The “Relative Rate of Hydrolysis” value [2] was 370, the “Relative Rate of Hydrolysis” value [3] was 2 and the “Relative Rate of Hydrolysis” value [4] was 93. The “Relative Rate of Hydrolysis” value [5] was 100, the “Relative Rate of Hydrolysis” value [6] was 50 and the ED50 (Enterobacter cloacae) was 200 mg/kg. For the same molecule, the PD50 /treatment (Enterobacter cloacae; mouse, in vivo) was over 400 mg/kg, the fraction unbound (in vitro) was 0.7 and the dose excreted at 24 h [7] was 59%. For the same molecule, the MIC (Arizona hinshawii) was 2 µg/mL (≈ 4.81 µM), the MIC (Serratia marcescens) was over 125 µg/mL and the MIC (Erwinia sp.) was 2 µg/mL (≈ 4.81 µM). For the same molecule, the MIC (Vibrio cholerae) was 16 µg/mL (≈ 38.5 µM), the MIC (Pseudomonas aeruginosa) was over 125 µg/mL and the MIC [8] was 32 µg/mL (≈ 77 µM). For the same molecule, the “relative activity against Haemophilus influenzae” value (Haemophilus influenzae) was “about equally active”, the MIC (Klebsiella pneumoniae; [12]) was 2 µg/mL (≈ 4.81 µM) and the MIC (Klebsiella pneumoniae; [13]) was 4 µg/mL (≈ 9.63 µM). For the same molecule, the MIC (Klebsiella pneumoniae; [14]) was 2 µg/mL (≈ 4.81 µM), the MIC (Klebsiella pneumoniae; [15]) was 8 µg/mL (≈ 19.3 µM) and the MIC (Klebsiella pneumoniae; [16]) was 2 µg/mL (≈ 4.81 µM). For the same molecule, the MIC (Klebsiella pneumoniae; [17]) was 16 µg/mL (≈ 38.5 µM), the MIC (Klebsiella pneumoniae; [18]) was 2 µg/mL (≈ 4.81 µM) and the MIC (Klebsiella pneumoniae; [19]) was 8 µg/mL (≈ 19.3 µM). For the same molecule, the MIC (Klebsiella pneumoniae; [20]) was 2 µg/mL (≈ 4.81 µM), the MIC (Klebsiella pneumoniae; [21]) was 16 µg/mL (≈ 38.5 µM) and the MIC (Klebsiella pneumoniae; [22]) was 2 µg/mL (≈ 4.81 µM). The MIC (Klebsiella pneumoniae; [23]) was 16 µg/mL (≈ 38.5 µM), the MIC (Enterobacter aerogenes; A, Inoculum of 10^2 organisms) was 63 µg/mL (≈ 152 µM) and the MIC (Enterobacter aerogenes; B, Inoculum of 10^6 organisms) was over 250 µg/mL. It also gave an MIC (Proteus vulgaris; [24]) of 4 µg/mL (≈ 9.63 µM), an MIC (Proteus vulgaris; [25]) of 16 µg/mL (≈ 38.5 µM) and an MIC (Proteus vulgaris; [26]) of 8 µg/mL (≈ 19.3 µM). The MIC (Proteus vulgaris; [27]) was 250 µg/mL (≈ 602 µM), the MIC (Proteus vulgaris; [28]) was 8 µg/mL (≈ 19.3 µM) and the MIC (Proteus vulgaris; [29]) was 16 µg/mL (≈ 38.5 µM). The MIC (Proteus rettgeri; [30]) was 4 µg/mL (≈ 9.63 µM), the MIC (Proteus rettgeri; [31]) was 250 µg/mL (≈ 602 µM) and the MIC (Proteus rettgeri; [32]) was 0.25 µg/mL (≈ 0.602 µM). The MIC (Proteus rettgeri; [33]) was over 250 µg/mL, the MIC (Proteus rettgeri; [34]) was 16 µg/mL (≈ 38.5 µM) and the MIC (Proteus rettgeri; [35]) was over 250 µg/mL. It also gave a half-life [9] of 22 min and a Cmax ([9]; 20 mg/kg) of 23000 ng/mL.
In the case of `CC(=O)OCC1=C(C(=O)O)N2C(=O)[C@@H](NC(=O)Cc3cccs3)[C@H]2SC1` [Cephalothin], the MIC (Bacteroides Fragilis) is reported as 125 µg/mL (≈ 315 µM), the “effect of cell concentration on growth inhibitory activity” value (Staphylococcus Aureus) is reported as “slightly” and the “MICB /MICA” value (Staphylococcus Aureus; [10]) is reported as 1.0. The “MICB /MICA” value (Staphylococcus Aureus; [11]) was 2.2, the “Relative Rate of Hydrolysis” value [1] was 2100 and the “Relative Rate of Hydrolysis” value [2] was 480. The “Relative Rate of Hydrolysis” value [3] was under 1, the “Relative Rate of Hydrolysis” value [4] was 9 and the “Relative Rate of Hydrolysis” value [5] was 8. For the same molecule, the “Relative Rate of Hydrolysis” value [6] was 43, the ED50 (Enterobacter cloacae) was over 400 mg/kg and the fraction unbound (in vitro) was 0.33. It also gave an MIC (Arizona hinshawii) of 2.8 µg/mL (≈ 7.06 µM), an MIC (Serratia marcescens) of over 125 µg/mL and an MIC (Erwinia sp.) of 5.3 µg/mL (≈ 13.4 µM). The MIC (Vibrio cholerae) was 1 µg/mL (≈ 2.52 µM), the MIC (Pseudomonas aeruginosa) was over 125 µg/mL and the MIC [8] was 8 µg/mL (≈ 20.2 µM). For the same molecule, the “relative activity against Haemophilus influenzae” value (Haemophilus influenzae) was “more than twice as active”, the “susceptibility of Neisseria gonorrhoeae” value (Neisseria gonorrhoeae) was “equally susceptible” and the MIC (Klebsiella pneumoniae; [12]) was 2 µg/mL (≈ 5.04 µM). The MIC (Klebsiella pneumoniae; [13]) was 8 µg/mL (≈ 20.2 µM), the MIC (Klebsiella pneumoniae; [14]) was 2 µg/mL (≈ 5.04 µM) and the MIC (Klebsiella pneumoniae; [15]) was 32 µg/mL (≈ 80.7 µM). It also gave an MIC (Klebsiella pneumoniae; [16]) of 2 µg/mL (≈ 5.04 µM), an MIC (Klebsiella pneumoniae; [17]) of 16 µg/mL (≈ 40.4 µM) and an MIC (Klebsiella pneumoniae; [18]) of 2 µg/mL (≈ 5.04 µM). For the same molecule, the MIC (Klebsiella pneumoniae; [19]) was 8 µg/mL (≈ 20.2 µM), the MIC (Klebsiella pneumoniae; [20]) was 2 µg/mL (≈ 5.04 µM) and the MIC (Klebsiella pneumoniae; [21]) was 32 µg/mL (≈ 80.7 µM). The MIC (Klebsiella pneumoniae; [22]) was 1 µg/mL (≈ 2.52 µM), the MIC (Klebsiella pneumoniae; [23]) was 16 µg/mL (≈ 40.4 µM) and the MIC (Enterobacter aerogenes; A, Inoculum of 10^2 organisms) was 32 µg/mL (≈ 80.7 µM). It also gave an MIC (Enterobacter aerogenes; B, Inoculum of 10^6 organisms) of over 250 µg/mL, an MIC (Proteus vulgaris; [24]) of 1 µg/mL (≈ 2.52 µM) and an MIC (Proteus vulgaris; [25]) of 4 µg/mL (≈ 10.1 µM). For the same molecule, the MIC (Proteus vulgaris; [26]) was 8 µg/mL (≈ 20.2 µM), the MIC (Proteus vulgaris; [27]) was 125 µg/mL (≈ 315 µM) and the MIC (Proteus vulgaris; [28]) was 16 µg/mL (≈ 40.4 µM). For the same molecule, the MIC (Proteus vulgaris; [29]) was 16 µg/mL (≈ 40.4 µM), the MIC (Proteus rettgeri; [30]) was 0.25 µg/mL (≈ 0.631 µM) and the MIC (Proteus rettgeri; [31]) was 250 µg/mL (≈ 631 µM). For the same molecule, the MIC (Proteus rettgeri; [32]) was 0.25 µg/mL (≈ 0.631 µM), the MIC (Proteus rettgeri; [33]) was over 250 µg/mL and the MIC (Proteus rettgeri; [34]) was 32 µg/mL (≈ 80.7 µM). For the same molecule, the MIC (Proteus rettgeri; [35]) was over 250 µg/mL.
